US8883841B2, “Oncogenic ras-specific cytotoxic compound and methods of use thereof” (The Board of Regents of the University of Texas System, priority 2005, dated 2014)

Columns and labels:
Ovca429 = assay: Cell viability, Ovca429 ovary cancer cells; type: cell-based
H2087 = assay: Cell viability, H2087 lung cancer cells; type: cell-based, human
HOP-62 = assay: NCI in-vitro testing, HOP-62 (Non-Small Cell Lung Cancer)
T-47D = assay: NCI in-vitro testing, T-47D (Breast Cancer)
NCI-H23 = assay: NCI in-vitro testing, NCI-H23 (Non-Small Cell Lung Cancer)
RXF 393 = assay: NCI in-vitro testing, RXF 393 (Renal Cancer)
TK-10 = assay: NCI in-vitro testing, TK-10 (Renal Cancer)
SK-MEL-28 = assay: NCI in-vitro testing, SK-MEL-28 (Melanoma)
SF-295 = assay: NCI in-vitro testing, SF-295 (CNS Cancer)
MALME-3M = assay: NCI in-vitro testing, MALME-3M (Melanoma)
OVCAR-3 = assay: NCI in-vitro testing, OVCAR-3 (Ovarian Cancer)
EKVX = assay: NCI in-vitro testing, EKVX (Non-Small Cell Lung Cancer)
SW-620 = assay: NCI in-vitro testing, SW-620 (Colon Cancer)
SK-OV-3 = assay: NCI in-vitro testing, SK-OV-3 (Ovarian Cancer)
ACHN = assay: NCI in-vitro testing, ACHN (Renal Cancer)

O=Cc1cn(Cc2ccc(Cl)cc2)c2ccccc12 [Oncrasin K001, 1H-Indole-3-carboxaldehyde, 1-[(4-chlorophenyl)methyl]-(9CI)]
IC50 (−LogM) (Ovca429): 4.5 −LogM
IC50 (−LogM) (H2087; H2087, Lung): >4.5 −LogM
effect on H2087 cells (H2087; mutant N-Ras): minimal effect

O=Cc1cn(Cc2cccc(Cl)c2)c2ccccc12 [Oncrasin K027, 1-(3-chlorobenzyl)-1H-indole-3-carbaldehyde]
TGI (HOP-62; HOP-62): 1.93E−5 Molar
Percent Growth (HOP-62; HOP-62, Log10 Concentration −4.0 Molar): −37%
Percent Growth (HOP-62; HOP-62, Log10 Concentration −5.0 Molar): 15%
Percent Growth (HOP-62; HOP-62, Log10 Concentration −6.0 Molar): 35%
Percent Growth (HOP-62; HOP-62, Log10 Concentration −7.0 Molar): 87%
Percent Growth (HOP-62; HOP-62, Log10 Concentration −8.0 Molar): 91%
GI50 (HOP-62; Homo sapiens, HOP-62): 0.35 µM
CC50 (HOP-62; Homo sapiens, HOP-62, read-out: LC50): > 100 µM
GI50 (T-47D; Homo sapiens, T47D): 0.0267 µM
CC50 (T-47D; Homo sapiens, T47D, read-out: LC50): > 100 µM
TGI (T-47D; T-47D): 4.23E−7 Molar
Percent Growth (T-47D; T-47D, Log10 Concentration −4.0 Molar): −14%
Percent Growth (T-47D; T-47D, Log10 Concentration −5.0 Molar): −16%
Percent Growth (T-47D; T-47D, Log10 Concentration −6.0 Molar): −12%
Percent Growth (T-47D; T-47D, Log10 Concentration −7.0 Molar): 20%
Percent Growth (T-47D; T-47D, Log10 Concentration −8.0 Molar): 73%
GI50 (NCI-H23; Homo sapiens, NCI-H23): 2.9 µM
CC50 (NCI-H23; Homo sapiens, NCI-H23, read-out: LC50): 71.1 µM
TGI (NCI-H23; NCI-H23): 2.10E−5 Molar
Percent Growth (NCI-H23; NCI-H23, Log10 Concentration −4.0 Molar): −54%
Percent Growth (NCI-H23; NCI-H23, Log10 Concentration −5.0 Molar): 31%
Percent Growth (NCI-H23; NCI-H23, Log10 Concentration −6.0 Molar): 57%
Percent Growth (NCI-H23; NCI-H23, Log10 Concentration −7.0 Molar): 82%
Percent Growth (NCI-H23; NCI-H23, Log10 Concentration −8.0 Molar): 94%
GI50 (RXF 393; Homo sapiens, RXF 393): < 0.01 µM
CC50 (RXF 393; Homo sapiens, RXF 393, read-out: LC50): 23.2 µM
TGI (RXF 393; RXF 393): 2.44E−7 Molar
Percent Growth (RXF 393; RXF 393, Log10 Concentration −4.0 Molar): −85%
Percent Growth (RXF 393; RXF 393, Log10 Concentration −5.0 Molar): −30%
Percent Growth (RXF 393; RXF 393, Log10 Concentration −6.0 Molar): −12%
Percent Growth (RXF 393; RXF 393, Log10 Concentration −7.0 Molar): 7%
Percent Growth (RXF 393; RXF 393, Log10 Concentration −8.0 Molar): 31%
GI50 (TK-10; Homo sapiens, TK-10): 0.0153 µM
CC50 (TK-10; Homo sapiens, TK-10, read-out: LC50): > 100 µM
TGI (TK-10; TK-10): 8.84E−8 Molar
Percent Growth (TK-10; TK-10, Log10 Concentration −4.0 Molar): −16%
Percent Growth (TK-10; TK-10, Log10 Concentration −5.0 Molar): −8%
Percent Growth (TK-10; TK-10, Log10 Concentration −6.0 Molar): −10%
Percent Growth (TK-10; TK-10, Log10 Concentration −7.0 Molar): −3%
Percent Growth (TK-10; TK-10, Log10 Concentration −8.0 Molar): 62%
GI50 (SK-MEL-28; Homo sapiens, SK-MEL-28): 18 µM
CC50 (SK-MEL-28; Homo sapiens, SK-MEL-28, read-out: LC50): > 100 µM
TGI (SK-MEL-28; SK-MEL-28): 4.44E−6 Molar
Percent Growth (SK-MEL-28; SK-MEL-28, Log10 Concentration −4.0 Molar): −45%
Percent Growth (SK-MEL-28; SK-MEL-28, Log10 Concentration −5.0 Molar): 82%
Percent Growth (SK-MEL-28; SK-MEL-28, Log10 Concentration −6.0 Molar): 93%
Percent Growth (SK-MEL-28; SK-MEL-28, Log10 Concentration −7.0 Molar): 93%
Percent Growth (SK-MEL-28; SK-MEL-28, Log10 Concentration −8.0 Molar): 83%
GI50 (SF-295; Homo sapiens, SF-295): 1.43 µM
CC50 (SF-295; Homo sapiens, SF-295, read-out: LC50): > 100 µM
TGI (SF-295; SF-295): 3.52E−5 Molar
Percent Growth (SF-295; SF-295, Log10 Concentration −4.0 Molar): −15%
Percent Growth (SF-295; SF-295, Log10 Concentration −5.0 Molar): 18%
Percent Growth (SF-295; SF-295, Log10 Concentration −6.0 Molar): 56%
Percent Growth (SF-295; SF-295, Log10 Concentration −7.0 Molar): 80%
Percent Growth (SF-295; SF-295, Log10 Concentration −8.0 Molar): 104%
GI50 (MALME-3M; Homo sapiens, Malme-3M): 5.17 µM
CC50 (MALME-3M; Homo sapiens, Malme-3M, read-out: LC50): 82 µM
TGI (MALME-3M; MALME-3M): 2.37E−5 Molar
Percent Growth (MALME-3M; MALME-3M, Log10 Concentration −4.0 Molar): −58%
Percent Growth (MALME-3M; MALME-3M, Log10 Concentration −5.0 Molar): 35%
Percent Growth (MALME-3M; MALME-3M, Log10 Concentration −6.0 Molar): 88%
Percent Growth (MALME-3M; MALME-3M, Log10 Concentration −7.0 Molar): 114%
Percent Growth (MALME-3M; MALME-3M, Log10 Concentration −8.0 Molar): 105%
GI50 (OVCAR-3; Homo sapiens, OVCAR-3): 0.569 µM
CC50 (OVCAR-3; Homo sapiens, OVCAR-3, read-out: LC50): 69.1 µM
TGI (OVCAR-3; OVCAR-3): 1.03E−5 Molar
Percent Growth (OVCAR-3; OVCAR-3, Log10 Concentration −4.0 Molar): −60%
Percent Growth (OVCAR-3; OVCAR-3, Log10 Concentration −5.0 Molar): 1%
Percent Growth (OVCAR-3; OVCAR-3, Log10 Concentration −6.0 Molar): 41%
Percent Growth (OVCAR-3; OVCAR-3, Log10 Concentration −7.0 Molar): 77%
Percent Growth (OVCAR-3; OVCAR-3, Log10 Concentration −8.0 Molar): 95%
TGI (EKVX): 6.47E−5 Molar
GI50 (EKVX; Homo sapiens): 21 µM
CC50 (EKVX; Homo sapiens, read-out: LC50): > 100 µM
Percent Growth (EKVX; Log10 Concentration −4.0 Molar): −22%
Percent Growth (EKVX; Log10 Concentration −5.0 Molar): 94%
Percent Growth (EKVX; Log10 Concentration −6.0 Molar): 107%
Percent Growth (EKVX; Log10 Concentration −7.0 Molar): 105%
Percent Growth (EKVX; Log10 Concentration −8.0 Molar): 103%
GI50 (SW-620; Homo sapiens, SW-620): 0.571 µM
CC50 (SW-620; Homo sapiens, SW-620, read-out: LC50): > 100 µM
TGI (SW-620; SW-620): 1.80E−5 Molar
Percent Growth (SW-620; SW-620, Log10 Concentration −4.0 Molar): −46%
Percent Growth (SW-620; SW-620, Log10 Concentration −5.0 Molar): 16%
Percent Growth (SW-620; SW-620, Log10 Concentration −6.0 Molar): 39%
Percent Growth (SW-620; SW-620, Log10 Concentration −7.0 Molar): 83%
Percent Growth (SW-620; SW-620, Log10 Concentration −8.0 Molar): 84%
GI50 (SK-OV-3; Homo sapiens, SK-OV-3): 1.82 µM
CC50 (SK-OV-3; Homo sapiens, SK-OV-3, read-out: LC50): > 100 µM
TGI (SK-OV-3; SK-OV-3): 2.95E−5 Molar
Percent Growth (SK-OV-3; SK-OV-3, Log10 Concentration −4.0 Molar): −18%
Percent Growth (SK-OV-3; SK-OV-3, Log10 Concentration −5.0 Molar): 16%
Percent Growth (SK-OV-3; SK-OV-3, Log10 Concentration −6.0 Molar): 62%
Percent Growth (SK-OV-3; SK-OV-3, Log10 Concentration −7.0 Molar): 85%
Percent Growth (SK-OV-3; SK-OV-3, Log10 Concentration −8.0 Molar): 96%
TGI (ACHN): 2.25E−5 Molar
GI50 (ACHN; Homo sapiens): 2.88 µM
CC50 (ACHN; Homo sapiens, read-out: LC50): > 100 µM
Percent Growth (ACHN; Log10 Concentration −4.0 Molar): −30%
Percent Growth (ACHN; Log10 Concentration −5.0 Molar): 16%
Percent Growth (ACHN; Log10 Concentration −6.0 Molar): 76%
Percent Growth (ACHN; Log10 Concentration −7.0 Molar): 92%
Percent Growth (ACHN; Log10 Concentration −8.0 Molar): 99%
